# Measurements as given in patent publication US10603304B1, “Compositions and methods for treating anxiety” (priority 2015, dated 2020).
# What was measured:
# lynx2KO mice [1] = assay: light dark box experiment (latency to enter dark enclosed environment); format: in vivo; conditions: lynx2KO mice under chronic stress with administration of mec, as opposed to lynx2KO mice without mec (FIG. 2A)
# From the text: FIG. 2A is a graph of the time in seconds (latency) for wild type (WT) (black bars) or lynx2 knock out (KO) (white bars) mice to enter a dark enclosed environment under conditions of saline, chronic stress, or chronic stress with administration of mecamylamine (mec) as indicated, according to embodiments of the present invention.
# lynx2KO mice [2] = assay: fear extinction experiment (fear associated with a noise after shock training); format: in vivo; conditions: lynx2KO mice with administration of mec compared to lynx2KO mice without mec (FIGS. 2B-2C)
# Description: FIG. 2B is a graph of fear observed in wild type (black circles) and lynx2KO mice (white triangles) after fear training (an electric shock depicted in yellow) associated with a noise for 24 hours followed by the same noise without the shock to measure the mouse's capability to lose the fear, according to embodiments of the present invention.
# FIG. 2C is a graph of fear observed in lynx2KO mice during the fear extinction experiment of FIG. 2B with a group of lynx2KO mice receiving mecamylamine (mec), according to embodiments of the present invention.
# [3] = system: amygdala (EC) neurons of lynx2KO mice; assay: long term depression (LTD) of evoked fEPSPs in brain slices after theta pulse stimulations; format: cell-based; conditions: brain slices from lynx2KO mice in ACSF solution with 20 mM methyllycaconitine (MLA), theta pulse stimulations (FIG. 4D)
# Description: FIG. 4D is a graph of stimulating electrode traces from long term depression (LTD) experiments using extracellular recordings for evoked field excitatory post-synaptic potentials (fEPSPs) in […] (EC) brain slices in ACSF solution with […] methyllycaconitine (MLA) from lynx2 knockout (KO) mice before (left of zero minutes) and after (right of zero minutes) theta pulse stimulations (TSP), according to embodiments of the present invention.
# The animals were anesthetized by isoflurane in an anesthetic chamber to a tolerant state (ml/kg) and euthanized through decapitation. […]
# Field excitatory postsynaptic potentials (fEPSPs) were evoked by 0.05 Hz test stimulus though a bipolar stimulating electrode placed on external Capsule (EC), and a glass pipette as recording electrode was filled with ACSF and placed in BLA. […] Access resistances were continuously monitored and neurons with more than 20% change of series resistance were excluded from data analysis.
# The plasticity ratio was calculated from the average EPSP amplitude of the last 10 mins of baseline recording and the last 15 mins after high frequency or low stimulus, for LTP and LTD studies, respectively. […] For all experiments, treatment effects were analyzed with one-way ANOVA, followed by the appropriate post hoc tests. […]
Compound,latency to dark (lynx2KO mice [1]),ability to unlearn a fear associated with a noise (fear extinction) (lynx2KO mice [2]),rescue of induced long term depression (LTD) [3]
CNC1(C)C2CCC(C2)C1(C)C (stereo not drawn) [mecamylamine],increased latency to dark,increased ability to unlearn a fear,
CCN1C[C@]2(COC(=O)c3ccccc3N3C(=O)C[C@H](C)C3=O)CC[C@H](OC)[C@@]34[C@@H]5C[C@H]6[C@H](OC)[C@@H]5[C@](O)(C[C@@H]6OC)[C@@](O)([C@@H](OC)[C@H]23)[C@@H]14 [methyllycaconitine],,,able to rescue induced long term depression (LTD)
